From ChEMBL document CHEMBL5131429, “Synthesis and antifungal evaluation of phenol-derived bis(indolyl)methanes combined with FLC against Candida albicans” (Bioorg Med Chem Lett, 2022)
Converted amounts (≈) assume the structure as drawn. The source made the active and inactive calls. No cut-off for these calls is given here.

Legend:
[1] = system: Candida albicans; assay: Antifungal activity against Candida albicans SC5314 by microdilution method; format: functional
[2] = system: Candida albicans; assay: Antifungal activity against Candida albicans CA23 by microdilution method; format: functional
[3] = system: Candida albicans; assay: Antifungal activity against Candida albicans SC5314 in presence of fluconazole by microdilution method; format: functional
[4] = system: Candida albicans; assay: Antifungal activity against Candida albicans CA23 in presence of fluconazole by microdilution method; format: functional
[5] = system: Candida albicans; assay: Antifungal activity against Candida albicans SC5314 assessed as fractional inhibitory concentration index in presence of fluconazole by microdilution method; format: functional
[6] = system: Candida albicans; assay: Antifungal activity against Candida albicans CA23 assessed as fractional inhibitory concentration index in presence of fluconazole by microdilution method; format: functional
[7] = system: Candida albicans; assay: Antifungal activity against Candida albicans ATCC14053 by microdilution method; format: functional
[8] = system: Candida albicans; assay: Antifungal activity against Candida albicans CA187 by microdilution method; format: functional
[9] = system: Candida albicans; assay: Antifungal activity against Candida albicans CA800 by microdilution method; format: functional
[10] = system: Candida albicans; assay: Antifungal activity against Candida albicans CA3816 by microdilution method; format: functional
[11] = system: Candida albicans; assay: Antifungal activity against Candida albicans CA3511 by microdilution method; format: functional
[12] = system: Candida albicans; assay: Antifungal activity against Candida albicans CA5408 by microdilution method; format: functional
[13] = system: Candida albicans; assay: Antifungal activity against Candida albicans CA558 by microdilution method; format: functional
[14] = system: Candida albicans; assay: Antifungal activity against Candida albicans CA602 by microdilution method; format: functional
[15] = system: Candida albicans; assay: Antifungal activity against Candida albicans ATCC14053 in presence of fluconazole by microdilution method; format: functional
[16] = system: Candida albicans; assay: Antifungal activity against Candida albicans CA187 in presence of fluconazole by microdilution method; format: functional
[17] = system: Candida albicans; assay: Antifungal activity against Candida albicans CA800 in presence of fluconazole by microdilution method; format: functional
[18] = system: Candida albicans; assay: Antifungal activity against Candida albicans CA3816 in presence of fluconazole by microdilution method; format: functional
[19] = system: Candida albicans; assay: Antifungal activity against Candida albicans CA3511 in presence of fluconazole by microdilution method; format: functional
[20] = system: Candida albicans; assay: Antifungal activity against Candida albicans CA5408 in presence of fluconazole by microdilution method; format: functional
[21] = system: Candida albicans; assay: Antifungal activity against Candida albicans CA558 in presence of fluconazole by microdilution method; format: functional
[22] = system: Candida albicans; assay: Antifungal activity against Candida albicans CA602 in presence of fluconazole by microdilution method; format: functional
[23] = system: Candida albicans; assay: Antifungal activity against Candida albicans ATCC14053 assessed as fractional inhibitory concentration index in presence of fluconazole by microdilution method; format: functional
[24] = system: Candida albicans; assay: Antifungal activity against Candida albicans CA187 assessed as fractional inhibitory concentration index in presence of fluconazole by microdilution method; format: functional
[25] = system: Candida albicans; assay: Antifungal activity against Candida albicans CA800 assessed as fractional inhibitory concentration index in presence of fluconazole by microdilution method; format: functional
[26] = system: Candida albicans; assay: Antifungal activity against Candida albicans CA3816 assessed as fractional inhibitory concentration index in presence of fluconazole by microdilution method; format: functional
[27] = system: Candida albicans; assay: Antifungal activity against Candida albicans CA3511 assessed as fractional inhibitory concentration index in presence of fluconazole by microdilution method; format: functional
[28] = system: Candida albicans; assay: Antifungal activity against Candida albicans CA5408 assessed as fractional inhibitory concentration index in presence of fluconazole by microdilution method; format: functional
[29] = system: Candida albicans; assay: Antifungal activity against Candida albicans CA558 assessed as fractional inhibitory concentration index in presence of fluconazole by microdilution method; format: functional
[30] = system: Candida albicans; assay: Antifungal activity against Candida albicans CA602 assessed as fractional inhibitory concentration index in presence of fluconazole by microdilution method; format: functional
[31] = system: Candida albicans; assay: Antifungal activity against Candida albicans at 2 ug/mL in presence of 1 ug/mL fluconazole by Time-kill curve assay; format: functional, organism-based; conditions: dose 2.0 µg/ml
[32] = system: Candida albicans; assay: Antifungal activity against Candida albicans ATCC14053 assessed as decrease in number of hyphae at 2 ug/mL in presence of 1 ug/mL fluconazole by microscopic analysis; format: functional, organism-based; conditions: dose 2.0 µg/ml
[33] = system: Candida albicans; assay: Antifungal activity against Candida albicans ATCC14053 assessed as shortened length of hyphae at 2 ug/mL in presence of 1 ug/mL fluconazole by microscopic analysis; format: functional, organism-based; conditions: dose 2.0 µg/ml
[34] = system: Candida albicans; assay: Induction of ROS production in Candida albicans at 2 ug/ml in presence of 1 ug/mL fluconazole by DCFH-DA assay; format: functional; conditions: dose 2.0 µg/ml
[35] = system: Candida albicans; assay: Induction of mitochondrial membrane potential loss in Candida albicans at 2 ug/ml after 16 hrs in presence of 1 ug/mL fluconazole by JC-1 staining based fluorescence microplate reader; format: functional, organism-based; conditions: dose 2.0 µg/ml
[36] = system: Candida albicans; assay: Induction of mitochondrial membrane potential loss in Candida albicans at 2 ug/ml after 16 hrs by JC-1 staining based fluorescence microplate reader; format: functional, organism-based; conditions: dose 2.0 µg/ml
[37] = system: Candida albicans; assay: Effect on cell membrane permeability ib Candida albicans assessed as cell membrane damage at 2 ug/ml measured after 8 to 24 hrs in presence of 1 ug/mL fluconazole by PI staining based fluorescence analysis; format: functional; conditions: dose 2.0 µg/ml, time 8-24 hrs
[38] = Cytotoxicity against PBMC (unknown origin) by MTT assay; format: toxicity, cell-based
[39] = Cytotoxicity against human 16HBE by MTS assay; format: toxicity, cell-based; conditions: 16HBE14o- cells
[40] = system: Candida albicans; assay: Induction of mitochondrial membrane potential loss in Candida albicans at 1 ug/ml after 16 hrs by JC-1 staining based fluorescence microplate reader; format: functional, organism-based; conditions: dose 1.0 µg/ml

Question: What does the source list for `Oc1ccc(Cl)cc1C(c1c[nH]c2ccccc12)c1c[nH]c2ccccc12`?
Answer: MIC80 [1]: > 200 µg/mL; MIC80 [2]: > 200 µg/mL; MIC80 [3]: 3.27 µg/mL; MIC80 [4]: 31.8 µg/mL; fractional inhibitory concentration index (FICI) [5]: 0.12; fractional inhibitory concentration index (FICI) [6]: 0.1

Question: Which results are given for `Oc1c(Cl)cc(Cl)cc1C(c1c[nH]c2ccccc12)c1c[nH]c2ccccc12`?
Answer: MIC80 [1]: > 200 µg/mL; MIC80 [2]: > 200 µg/mL; MIC80 [3]: 0.55 µg/mL; MIC80 [4]: 5.88 µg/mL; fractional inhibitory concentration index (FICI) [5]: 0.02; fractional inhibitory concentration index (FICI) [6]: 0.02

Question: With `Oc1c(Br)cccc1C(c1c[nH]c2ccccc12)c1c[nH]c2ccccc12` as the compound, how does the MIC80 [1] read?
Answer: > 200 µg/mL

Question: What about the MIC80 [2] of the same compound?
Answer: > 200 µg/mL

Question: What about the MIC80 [3] of the same compound?
Answer: 1.22 µg/mL

Question: What about the MIC80 [4] of the same compound?
Answer: 5.82 µg/mL

Question: What about the “fractional inhibitory concentration index (FICI)” value [5] of the same compound?
Answer: 0.04

Question: What about the “fractional inhibitory concentration index (FICI)” value [6] of the same compound?
Answer: 0.02

Question: What about the MIC80 [7] of the same compound?
Answer: > 200 µg/mL

Question: What about the MIC80 [8] of the same compound?
Answer: > 200 µg/mL

Question: What about the MIC80 [9] of the same compound?
Answer: > 200 µg/mL

Question: What about the MIC80 [10] of the same compound?
Answer: > 200 µg/mL

Question: What about the MIC80 [11] of the same compound?
Answer: > 200 µg/mL

Question: And the MIC80 [12]?
Answer: > 200 µg/mL

Question: And the MIC80 [13]?
Answer: > 200 µg/mL

Question: And the MIC80 [14]?
Answer: > 200 µg/mL

Question: And the MIC80 [15]?
Answer: 1.37 µg/mL

Question: What about the MIC80 [16] of the same compound?
Answer: 4.5 µg/mL

Question: What about the MIC80 [17] of the same compound?
Answer: 2.63 µg/mL

Question: And the MIC80 [18]?
Answer: 1.38 µg/mL

Question: And the MIC80 [19]?
Answer: 5.96 µg/mL

Question: And the MIC80 [20]?
Answer: 1.33 µg/mL

Question: What about the MIC80 [21] of the same compound?
Answer: 5.61 µg/mL

Question: And the MIC80 [22]?
Answer: 5.69 µg/mL

Question: And the “fractional inhibitory concentration index (FICI)” value [23]?
Answer: 0.01

Question: And the “fractional inhibitory concentration index (FICI)” value [24]?
Answer: 0.02

Question: And the “fractional inhibitory concentration index (FICI)” value [25]?
Answer: 0.01

Question: What about the “fractional inhibitory concentration index (FICI)” value [26] of the same compound?
Answer: 0.01

Question: What about the “fractional inhibitory concentration index (FICI)” value [27] of the same compound?
Answer: 0.03

Question: And the “fractional inhibitory concentration index (FICI)” value [28]?
Answer: 0.01

Question: What about the “fractional inhibitory concentration index (FICI)” value [29] of the same compound?
Answer: 0.03

Question: What about the “fractional inhibitory concentration index (FICI)” value [30] of the same compound?
Answer: 0.03

Question: And the Activity [31]?
Answer: Active

Question: What about the Activity [32] of the same compound?
Answer: Active

Question: What about the Activity [33] of the same compound?
Answer: Active

Question: What about the Activity [34] of the same compound?
Answer: Active

Question: What about the Activity [35] of the same compound?
Answer: Active

Question: What about the Activity [36] of the same compound?
Answer: Active

Question: And the Activity [37]?
Answer: Active

Question: And the CC50 [38]?
Answer: 32.7 µg/mL (≈ 78.5 µM)

Question: And the CC50 [39]?
Answer: 35.6 µg/mL (≈ 85.3 µM)

Question: With `Oc1c(Br)cc(Br)cc1C(c1c[nH]c2ccccc12)c1c[nH]c2ccccc12` as the compound, how does the MIC80 [1] read?
Answer: > 200 µg/mL

Question: What about the MIC80 [2] of the same compound?
Answer: > 200 µg/mL

Question: What about the MIC80 [3] of the same compound?
Answer: 2.85 µg/mL

Question: What about the MIC80 [4] of the same compound?
Answer: 6.01 µg/mL

Question: And the “fractional inhibitory concentration index (FICI)” value [5]?
Answer: 0.11

Question: What about the “fractional inhibitory concentration index (FICI)” value [6] of the same compound?
Answer: 0.02

Question: With `O=[N+]([O-])c1ccc(O)c(C(c2c[nH]c3ccccc23)c2c[nH]c3ccccc23)c1` as the compound, how does the MIC80 [1] read?
Answer: 0.69 µg/mL (≈ 1.8 µM)

Question: What about the MIC80 [2] of the same compound?
Answer: 180 µg/mL (≈ 471 µM)

Question: And the MIC80 [3]?
Answer: 25.6 µg/mL

Question: And the MIC80 [4]?
Answer: 29.3 µg/mL

Question: And the “fractional inhibitory concentration index (FICI)” value [6]?
Answer: 0.18

Question: For `OC(Cn1cncn1)(Cn1cncn1)c1ccc(F)cc1F` [FLUCONAZOLE], which MIC80 [1] is on record?
Answer: 5.79 µg/mL (≈ 18.9 µM)

Question: And the MIC80 [2]?
Answer: > 200 µg/mL

Question: And the MIC80 [7]?
Answer: > 200 µg/mL

Question: And the MIC80 [8]?
Answer: > 200 µg/mL

Question: And the MIC80 [9]?
Answer: > 200 µg/mL

Question: What about the MIC80 [10] of the same compound?
Answer: > 200 µg/mL

Question: What about the MIC80 [11] of the same compound?
Answer: > 200 µg/mL

Question: And the MIC80 [12]?
Answer: > 200 µg/mL

Question: What about the MIC80 [13] of the same compound?
Answer: > 200 µg/mL

Question: What about the MIC80 [14] of the same compound?
Answer: > 200 µg/mL

Question: What about the Activity [40] of the same compound?
Answer: Active

Question: What about the CC50 [38] of the same compound?
Answer: 676 µg/mL (≈ 2210 µM)

Question: And the CC50 [39]?
Answer: > 1000 µg/mL

Question: What does the source list for `Oc1c(Cl)cc(Br)cc1C(c1c[nH]c2ccccc12)c1c[nH]c2ccccc12`?
Answer: MIC80 [1]: > 200 µg/mL; MIC80 [2]: 18.3 µg/mL (≈ 40.6 µM); MIC80 [3]: 0.9 µg/mL; MIC80 [4]: 6.59 µg/mL; fractional inhibitory concentration index (FICI) [5]: 0.04; fractional inhibitory concentration index (FICI) [6]: 0.36

Question: Which results are given for `Cc1ccc(C(c2c[nH]c3ccccc23)c2c[nH]c3ccccc23)c(O)c1`?
Answer: MIC80 [1]: > 200 µg/mL; MIC80 [2]: 37 µg/mL (≈ 105 µM); MIC80 [3]: 3.67 µg/mL; MIC80 [4]: 5.75 µg/mL; fractional inhibitory concentration index (FICI) [5]: 0.14; fractional inhibitory concentration index (FICI) [6]: 0.02

Question: Which MIC80 [1] does the source give for `Oc1c(Cl)cccc1C(c1c[nH]c2ccccc12)c1c[nH]c2ccccc12` here?
Answer: > 200 µg/mL

Question: And the MIC80 [2]?
Answer: > 200 µg/mL

Question: What about the MIC80 [3] of the same compound?
Answer: 1.31 µg/mL

Question: And the MIC80 [4]?
Answer: 5.82 µg/mL

Question: And the “fractional inhibitory concentration index (FICI)” value [5]?
Answer: 0.05

Question: And the “fractional inhibitory concentration index (FICI)” value [6]?
Answer: 0.02
